According to patent publication US6806230B1, “Pyrimidine derivatives and herbicides containing them” (Kumiai Chemical Industry Co., Ltd., priority 1999, dated 2004):

Assays:
Format in all cases: in vivo
monochoria (Mo) [1] = test: Test Example 1: herbicidal effects by flooded paddy field treatment; set-up: herbicidal effects, Mo (monochoria):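 0-5 growth inhibition grade; 5 = over 90%; 4 = 70-90%; 3 = 50-70%; 2 = 30-50%; 1 = 10-30%; 0 = under 10%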; settings: for Herbicidal effect index, Mo: dose 100 gai/10a, examined on 21st day after treatment, index 0-5 per Table 44; for herbicidal effects, Mo (monochoria): dose 100 g active ingredient per 10 ares, examined on the 21st day after treatment, standards of Table 44;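 as to Herbicidal effect index, Mo: 0-5 growth inhibition grade; 5 = over 90%; 4 = 70-90%; 3 = 50-70%; 2 = 30-50%; 1 = 10-30%; 0 = under 10%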
How it was run: (§1)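 Herbicidal effect scored 21 days post-treatment after greenhouse cultivation. Treatment was applied dropwise to the water surface, one day after sowing, as a diluted wettable powder (100 g a.i./10 ares). Pots held puddled paddy soil under 3 cm water.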

rice (Or) = test: Test Example 4: selectivity for a crop plant by flooded paddy field treatment; set-up: scale not given here; settings: rice transplanted at second leaf stage; for Or (effect on crop plant rice, index): dose 25 g active ingredient per 10 ares, examined on the 21st day after treatment; for Or (herbicidal effect index on crop): dose 25 gai/10a, 21st day after treatment, index per Table 44
How it was run: (§2)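 Flooded-paddy treatment: the wettable powder formulation, diluted in water, was applied dropwise to 3 cm floodwater at 25 g a.i./10 ares one day after sowing barnyard grass and monochoria and transplanting rice at the second leaf stage. Greenhouse grown; herbicidal effect rated against set standards on day 21.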

barnyard grass (Eo) [2] = test: as above; set-up: scale not given here; settings: for Eo (herbicidal effects, index): dose 25 g active ingredient per 10 ares, examined on the 21st day after treatment; for Eo (herbicidal effect index): barnyard grass, dose 25 gai/10a, 21st day after treatment, index per Table 44
How it was run: as §2

monochoria (Mo) [3] = test: as above; set-up: scale not given here; settings: for Mo (herbicidal effects, index): dose 25 g active ingredient per 10 ares, examined on the 21st day after treatment; for Mo (herbicidal effect index): monochoria, dose 25 gai/10a, 21st day after treatment, index per Table 44
How it was run: as §2

barnyard grass (Eo) [4] = test: Test Example 1: herbicidal effects by flooded paddy field treatment; set-up: herbicidal effects, Eo (barnyard grass):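 0-5 growth inhibition grade; 5 = over 90%; 4 = 70-90%; 3 = 50-70%; 2 = 30-50%; 1 = 10-30%; 0 = under 10%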; settings: for Herbicidal effect index, Eo: dose 100 gai/10a, examined on 21st day after treatment, index 0-5 per Table 44; for herbicidal effects, Eo (barnyard grass): dose 100 g active ingredient per 10 ares, examined on the 21st day after treatment, standards of Table 44;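 as to Herbicidal effect index, Eo: 0-5 growth inhibition grade; 5 = over 90%; 4 = 70-90%; 3 = 50-70%; 2 = 30-50%; 1 = 10-30%; 0 = under 10%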
How it was run: as §1

barnyard grass (Ec) = test: Test Example 2: herbicidal effects by upland soil treatment; set-up: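 0-5 growth inhibition grade; 5 = over 90%; 4 = 70-90%; 3 = 50-70%; 2 = 30-50%; 1 = 10-30%; 0 = under 10%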; settings: dose 100 g active ingredient per 10 ares, examined on the 21st day after treatment, standards of Table 44
How it was run: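 Pre-emergence test: barnyard grass and green foxtail sown in upland soil, then soil surface sprayed with wettable-powder formulation at 100 g active ingredient per 10 ares (100 l per 10 ares). Grown in greenhouse; herbicidal effect scored on a rating scale 21 days after treatment.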

green foxtail (Se) = test: as above; settings: dose 100 g active ingredient per 10 ares, examined on the 21st day after treatment, standards of Table 44;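 also: 0-5 growth inhibition grade; 5 = over 90%; 4 = 70-90%; 3 = 50-70%; 2 = 30-50%; 1 = 10-30%; 0 = under 10%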
Method: In a 80 cm^2 plastic pot, upland soil was filled, and seeds of barnyard grass (Ec) and green foxtail (Se) were sown and covered with soil. A wettable powder prepared in accordance with Formulation Example 1 was diluted with water and uniformly applied to the soil surface by means of a small size spray at a rate of 100 l per 10 ares, so that the dose of the active ingredient would be 100 g per 10 ares. Thereafter, cultivation was carried out in a green house, and on the 21st day after the treatment, the herbicidal effects were examined in accordance with the standards as identified in Table 44.

CC(C)C(c1cncnc1C(F)(F)F)N(C)C(=O)Cc1ccccc1Cl (racemic) [Compound 1-20]
5: Herbicidal effect index, Mo (monochoria (Mo) [1]) | Eo (herbicidal effects, index) (barnyard grass (Eo) [2]) | Mo (herbicidal effects, index) (monochoria (Mo) [3]) | Herbicidal effect index, Eo (barnyard grass (Eo) [4]) | herbicidal effects, Ec (barnyard grass) (barnyard grass (Ec)) | herbicidal effects, Se (green foxtail) (green foxtail (Se))
1: Or (effect on crop plant rice, index) (rice (Or))

CC(C)C(c1cncnc1C(F)(F)F)N(C)C(=O)Cc1cccc([N+](=O)[O-])c1 (racemic) [Compound 1-74]
0: Or (effect on crop plant rice, index) (rice (Or))
5: Herbicidal effect index, Mo (monochoria (Mo) [1]) | Eo (herbicidal effects, index) (barnyard grass (Eo) [2]) | Mo (herbicidal effects, index) (monochoria (Mo) [3]) | Herbicidal effect index, Eo (barnyard grass (Eo) [4]) | herbicidal effects, Ec (barnyard grass) (barnyard grass (Ec)) | herbicidal effects, Se (green foxtail) (green foxtail (Se))

CN(C(=O)Cc1ccccc1)C(c1cncnc1C(F)(F)F)C1CC1 (racemic) [Compound 1-34]
5: Herbicidal effect index, Mo (monochoria (Mo) [1]) | Eo (herbicidal effects, index) (barnyard grass (Eo) [2]) | Mo (herbicidal effects, index) (monochoria (Mo) [3]) | Herbicidal effect index, Eo (barnyard grass (Eo) [4]) | herbicidal effects, Ec (barnyard grass) (barnyard grass (Ec)) | herbicidal effects, Se (green foxtail) (green foxtail (Se))
1: Or (effect on crop plant rice, index) (rice (Or))

CC(C)C(c1cncnc1C(F)(F)F)N(C(=O)Cc1ccccc1)C(C)C (racemic) [Compound 1-103]
1: Or (herbicidal effect index on crop) (rice (Or))
5: Herbicidal effect index, Mo (monochoria (Mo) [1]) | Eo (herbicidal effect index) (barnyard grass (Eo) [2]) | Mo (herbicidal effect index) (monochoria (Mo) [3]) | Herbicidal effect index, Eo (barnyard grass (Eo) [4]) | herbicidal effects, Ec (barnyard grass) (barnyard grass (Ec)) | herbicidal effects, Se (green foxtail) (green foxtail (Se))

Cc1ccc(CC(=O)N(C)C(c2cncnc2C(F)F)C(C)C)cc1 (racemic) [Compound 1-166]
1: Or (herbicidal effect index on crop) (rice (Or))
5: herbicidal effects, Mo (monochoria) (monochoria (Mo) [1]) | Eo (herbicidal effect index) (barnyard grass (Eo) [2]) | Mo (herbicidal effect index) (monochoria (Mo) [3]) | herbicidal effects, Eo (barnyard grass) (barnyard grass (Eo) [4]) | herbicidal effects, Ec (barnyard grass) (barnyard grass (Ec)) | herbicidal effects, Se (green foxtail) (green foxtail (Se))

Cc1ccc(C(c2cncnc2C(F)(F)F)N(C)C(=O)Cc2ccc(F)cc2)cc1 (racemic) [1-226]
5: herbicidal effects, Mo (monochoria) (monochoria (Mo) [1]) | Eo (herbicidal effect index) (barnyard grass (Eo) [2]) | Mo (herbicidal effect index) (monochoria (Mo) [3]) | herbicidal effects, Eo (barnyard grass) (barnyard grass (Eo) [4]) | herbicidal effects, Ec (barnyard grass) (barnyard grass (Ec))
1: Or (herbicidal effect index on crop) (rice (Or))
4: herbicidal effects, Se (green foxtail) (green foxtail (Se))

CC(C)C(c1cncnc1C(F)(F)F)N(C)C(=O)Cc1ccc2c(c1)OCO2 (racemic) [Compound 1-146]
4: herbicidal effects, Ec (barnyard grass) (barnyard grass (Ec)) | herbicidal effects, Se (green foxtail) (green foxtail (Se))
5: herbicidal effects, Mo (monochoria) (monochoria (Mo) [1]) | Eo (herbicidal effect index) (barnyard grass (Eo) [2]) | Mo (herbicidal effect index) (monochoria (Mo) [3]) | herbicidal effects, Eo (barnyard grass) (barnyard grass (Eo) [4])
1: Or (herbicidal effect index on crop) (rice (Or))

CCN(C(=O)Cc1ccc(F)cc1)C(c1cncnc1C(F)F)C(C)C (racemic) [Compound 1-169]
1: Or (herbicidal effect index on crop) (rice (Or))
5: herbicidal effects, Mo (monochoria) (monochoria (Mo) [1]) | Eo (herbicidal effect index) (barnyard grass (Eo) [2]) | Mo (herbicidal effect index) (monochoria (Mo) [3]) | herbicidal effects, Eo (barnyard grass) (barnyard grass (Eo) [4]) | herbicidal effects, Ec (barnyard grass) (barnyard grass (Ec)) | herbicidal effects, Se (green foxtail) (green foxtail (Se))

CCc1ccc(CC(=O)N(C)C(c2cncnc2C(F)(F)F)C(C)C)cc1 (racemic) [Compound 1-67]
5: Herbicidal effect index, Mo (monochoria (Mo) [1]) | Eo (herbicidal effects, index) (barnyard grass (Eo) [2]) | Mo (herbicidal effects, index) (monochoria (Mo) [3]) | Herbicidal effect index, Eo (barnyard grass (Eo) [4]) | herbicidal effects, Ec (barnyard grass) (barnyard grass (Ec)) | herbicidal effects, Se (green foxtail) (green foxtail (Se))
1: Or (effect on crop plant rice, index) (rice (Or))

CN(C(=O)Cc1ccc(Cl)cc1)C(c1ccc(F)cc1)c1cncnc1C(F)(F)F (racemic) [1-219]
5: herbicidal effects, Mo (monochoria) (monochoria (Mo) [1]) | Eo (herbicidal effect index) (barnyard grass (Eo) [2]) | Mo (herbicidal effect index) (monochoria (Mo) [3]) | herbicidal effects, Eo (barnyard grass) (barnyard grass (Eo) [4]) | herbicidal effects, Ec (barnyard grass) (barnyard grass (Ec)) | herbicidal effects, Se (green foxtail) (green foxtail (Se))
1: Or (herbicidal effect index on crop) (rice (Or))

Cc1ccc(OCC(=O)N(C)C(c2cncnc2C(F)(F)F)C(C)C)cc1 (racemic) [Compound 1-136]
5: herbicidal effects, Mo (monochoria) (monochoria (Mo) [1]) | Eo (herbicidal effect index) (barnyard grass (Eo) [2]) | Mo (herbicidal effect index) (monochoria (Mo) [3]) | herbicidal effects, Eo (barnyard grass) (barnyard grass (Eo) [4]) | herbicidal effects, Ec (barnyard grass) (barnyard grass (Ec)) | herbicidal effects, Se (green foxtail) (green foxtail (Se))
1: Or (herbicidal effect index on crop) (rice (Or))

CC(C)C(c1cncnc1C(F)(F)F)N(C)C(=O)Cc1cc(F)cc(F)c1 (racemic) [Compound 1-167]
1: Or (herbicidal effect index on crop) (rice (Or))
5: herbicidal effects, Mo (monochoria) (monochoria (Mo) [1]) | Eo (herbicidal effect index) (barnyard grass (Eo) [2]) | Mo (herbicidal effect index) (monochoria (Mo) [3]) | herbicidal effects, Eo (barnyard grass) (barnyard grass (Eo) [4]) | herbicidal effects, Ec (barnyard grass) (barnyard grass (Ec)) | herbicidal effects, Se (green foxtail) (green foxtail (Se))

Cc1ccc(CC(=O)N(C)C(c2cncnc2C(F)(F)F)C2CCCC2)cc1 (racemic) [Compound 1-141]
1: Or (herbicidal effect index on crop) (rice (Or))
5: herbicidal effects, Mo (monochoria) (monochoria (Mo) [1]) | Eo (herbicidal effect index) (barnyard grass (Eo) [2]) | Mo (herbicidal effect index) (monochoria (Mo) [3]) | herbicidal effects, Eo (barnyard grass) (barnyard grass (Eo) [4]) | herbicidal effects, Ec (barnyard grass) (barnyard grass (Ec)) | herbicidal effects, Se (green foxtail) (green foxtail (Se))

COCN(C(=O)Cc1ccc(C)cc1)C(c1cncnc1C(F)(F)F)C(C)C (racemic) [Compound 1-106]
4: herbicidal effects, Se (green foxtail) (green foxtail (Se))
5: Herbicidal effect index, Mo (monochoria (Mo) [1]) | Eo (herbicidal effect index) (barnyard grass (Eo) [2]) | Mo (herbicidal effect index) (monochoria (Mo) [3]) | Herbicidal effect index, Eo (barnyard grass (Eo) [4]) | herbicidal effects, Ec (barnyard grass) (barnyard grass (Ec))
0: Or (herbicidal effect index on crop) (rice (Or))

CC(C)C(c1cncnc1C(F)(F)F)N(C)C(=O)COc1cccc(F)c1 (racemic) [Compound 1-126]
5: Herbicidal effect index, Mo (monochoria (Mo) [1]) | Eo (herbicidal effect index) (barnyard grass (Eo) [2]) | Mo (herbicidal effect index) (monochoria (Mo) [3]) | Herbicidal effect index, Eo (barnyard grass (Eo) [4]) | herbicidal effects, Ec (barnyard grass) (barnyard grass (Ec)) | herbicidal effects, Se (green foxtail) (green foxtail (Se))
1: Or (herbicidal effect index on crop) (rice (Or))

Cc1cccc(OCC(=O)N(C)C(c2cncnc2C(F)(F)F)C(C)C)c1 (racemic) [Compound 1-135]
1: Or (herbicidal effect index on crop) (rice (Or))
5: herbicidal effects, Mo (monochoria) (monochoria (Mo) [1]) | Eo (herbicidal effect index) (barnyard grass (Eo) [2]) | Mo (herbicidal effect index) (monochoria (Mo) [3]) | herbicidal effects, Eo (barnyard grass) (barnyard grass (Eo) [4]) | herbicidal effects, Ec (barnyard grass) (barnyard grass (Ec)) | herbicidal effects, Se (green foxtail) (green foxtail (Se))

Cc1ccc(CC(=O)N(C)C(c2cncnc2C(F)(F)F)C(C)C)cc1Cl (racemic) [Compound 1-121]
1: Or (herbicidal effect index on crop) (rice (Or))
4: herbicidal effects, Se (green foxtail) (green foxtail (Se))
5: Herbicidal effect index, Mo (monochoria (Mo) [1]) | Eo (herbicidal effect index) (barnyard grass (Eo) [2]) | Mo (herbicidal effect index) (monochoria (Mo) [3]) | Herbicidal effect index, Eo (barnyard grass (Eo) [4]) | herbicidal effects, Ec (barnyard grass) (barnyard grass (Ec))

Cc1ccc(CC(=O)N(C)C(c2cncnc2C)C(C)(C)C)cc1 (racemic) [Compound 1-162]
0: Or (herbicidal effect index on crop) (rice (Or))
5: herbicidal effects, Mo (monochoria) (monochoria (Mo) [1]) | Eo (herbicidal effect index) (barnyard grass (Eo) [2]) | Mo (herbicidal effect index) (monochoria (Mo) [3]) | herbicidal effects, Eo (barnyard grass) (barnyard grass (Eo) [4]) | herbicidal effects, Ec (barnyard grass) (barnyard grass (Ec))
4: herbicidal effects, Se (green foxtail) (green foxtail (Se))
